Reference: PubChem BioAssay (NCI)
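Growth conditions: 96-well plates. Treatment: test compound, 48 hours, 5 concentrations. Analysis: linear interpolation between bracketing concentrations; unreached endpoints set to highest concentration. The concentration for 50% growth inhibition is given as GI50. The concentration for full growth arrest is given as TGI.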

How the values were obtained:
Assay in all cases: NCI anticancer screen, dose series, 48 h
786-0 renal = system: 786-0 renal
OVCAR-8 ovarian = system: OVCAR-8 ovarian
SK-MEL-2 melanoma = system: SK-MEL-2 melanoma
M14 melanoma = system: M14 melanoma
TK-10 renal = system: TK-10 renal
HT29 colon = system: HT29 colon
SF-268 CNS = system: SF-268 CNS
OVCAR-4 ovarian = system: OVCAR-4 ovarian
IGROV1 ovarian = system: IGROV1 ovarian
K-562 leukemia = system: K-562 leukemia
SN12C renal = system: SN12C renal
SF-539 CNS = system: SF-539 CNS

Row | SMILES | TGI (786-0 renal) | TGI (OVCAR-8 ovarian) | TGI (SK-MEL-2 melanoma) | TGI (M14 melanoma) | TGI (TK-10 renal) | TGI (HT29 colon) | TGI (SF-268 CNS) | TGI (OVCAR-4 ovarian) | TGI (IGROV1 ovarian) | TGI (K-562 leukemia) | TGI (SN12C renal) | TGI (SF-539 CNS) | GI50 (M14 melanoma) | GI50 (TK-10 renal) | GI50 (HT29 colon) | GI50 (SF-268 CNS) | GI50 (IGROV1 ovarian) | GI50 (K-562 leukemia)
1 | COc1cc(Nc2nc3cc(C)ccc3nc2-c2ccccc2)cc(OC)c1OC | 33.9 µM | > 100 µM | 45.3 µM | > 100 µM | > 100 µM | 33.7 µM | > 100 µM | > 100 µM | > 100 µM | > 100 µM | > 100 µM | – | – | – | – | – | – | –
2 | Cc1[nH]c(=O)c2oc3cc4ccccc4cc3c2c1C(=O)O | > 10 µM | > 10 µM | > 10 µM | > 10 µM | > 10 µM | > 10 µM | > 10 µM | > 10 µM | > 10 µM | – | > 10 µM | > 10 µM | – | – | – | – | – | –
3 | Cc1nn(C(=O)Cc2ccccc2)c2c1C(c1ccc(/C=C/c3ccccc3)cc1)SC(N)=N2 (configuration not stated) | > 100 µM | > 100 µM | – | > 100 µM | > 100 µM | > 100 µM | > 100 µM | – | > 100 µM | > 100 µM | > 100 µM | > 100 µM | – | – | – | – | – | –
4 | Cc1csc(=Nc2ccccc2)n1CCC(O)(P(=O)(O)O)P(=O)(O)O | > 100 µM | > 100 µM | – | > 100 µM | > 100 µM | > 100 µM | > 100 µM | – | > 100 µM | – | – | > 100 µM | – | – | – | – | – | –
5 | Cc1ccc2c(c1C)CC1(Cc3ccc(C)c(C)c3C1=O)C2=O (configuration not stated) | > 100 µM | > 100 µM | > 100 µM | > 100 µM | > 100 µM | – | > 100 µM | > 100 µM | > 100 µM | > 100 µM | > 100 µM | > 100 µM | – | – | – | – | – | –
6 | Cc1cc2nnn(C3CCCCO3)c2cc1C (configuration not stated) | > 100 µM | > 100 µM | > 100 µM | > 100 µM | > 100 µM | > 100 µM | – | > 100 µM | > 100 µM | > 100 µM | > 100 µM | > 100 µM | – | – | – | – | – | –
7 | COc1ccc(/C=C2\C[C@H]3[C@@H]4CC=C5C[C@@H](O)CC[C@]5(C)[C@H]4CC[C@]3(C)\C2=N\O)cc1 | 44.3 µM | – | 39.8 µM | 40.3 µM | > 100 µM | > 100 µM | 46.2 µM | > 100 µM | 96.2 µM | 45.9 µM | 44.4 µM | > 100 µM | – | – | – | – | – | –
8 | C/C=C1/C=CC2c3[nH]c4ccccc4c3CCN2C1 (configuration not stated) | > 400 µM | > 400 µM | > 400 µM | – | > 400 µM | > 400 µM | > 400 µM | – | > 400 µM | > 400 µM | > 400 µM | > 400 µM | – | – | – | – | – | –
9 | Cc1nc2ccc(S(=O)(=O)O)cc2c(=O)n1-c1ccc(C(=O)NN2C(=O)C(Cl)C2c2cccs2)cc1 (configuration not stated) | > 100 µM | > 100 µM | 54.1 µM | 41.4 µM | > 100 µM | > 100 µM | 44.3 µM | 79.7 µM | – | > 100 µM | > 100 µM | > 100 µM | – | – | – | – | – | –
10 | CC[C@@H]1CC[C@@H]2[C@H](CC[C@]3(C)[C@@H](O[N+](=O)[O-])CC[C@@H]23)[C@H]1C(C)=O | > 100 µM | > 100 µM | – | > 100 µM | > 100 µM | 33.4 µM | > 100 µM | > 100 µM | > 100 µM | > 100 µM | > 100 µM | > 100 µM | – | – | – | – | – | –
11 | O=C(O)CCC(NC(=O)c1ccc(Nc2nc3ccc(C(F)(F)F)cc3nc2C(=O)O)cc1)C(=O)O (configuration not stated) | > 100 µM | > 100 µM | > 100 µM | > 100 µM | > 100 µM | > 100 µM | > 100 µM | – | > 100 µM | > 100 µM | > 100 µM | > 100 µM | – | – | – | – | – | –
12 | CN(Cc1cccc2ccsc12)/N=C\c1ccc(Cl)cc1 | > 100 µM | > 100 µM | – | > 100 µM | > 100 µM | > 100 µM | > 100 µM | > 100 µM | > 100 µM | > 100 µM | > 100 µM | – | – | – | – | – | – | –
13 | O=c1c2sc3ccccc3sc=2c(=O)c2c(Cl)c(Cl)c(Cl)c(Cl)c12 | > 100 µM | > 100 µM | > 100 µM | > 100 µM | > 100 µM | > 100 µM | > 100 µM | > 100 µM | > 100 µM | > 100 µM | > 100 µM | – | – | – | – | – | – | –
14 | CCOC(=O)c1c(Cl)c2c(n1Cc1ccccc1)-c1oncc1CCC2 | – | – | – | > 100 µM | > 100 µM | 8.52 µM | > 100 µM | – | > 100 µM | > 100 µM | – | – | 3.78 µM | > 100 µM | 2.95 µM | > 100 µM | 4.39 µM | 3.68 µM
15 | CCN(C(=O)N[C@@H](CC(C)C)C(=O)NCC(=O)OC)c1ccccc1 | > 100 µM | > 100 µM | > 100 µM | > 100 µM | > 100 µM | > 100 µM | – | > 100 µM | > 100 µM | > 100 µM | > 100 µM | > 100 µM | – | – | – | – | – | –
16 | O=C(OC1OC2COC(=O)c3cc(O)c(O)c(O)c3-c3c(cc(O)c(O)c3O)C(=O)OC3C2OC(=O)[C@@]24CC(=O)[C@@](O)(OC25C(=O)O[C@H]2[C@@H](O)CO[C@@]25O)C2(O)Oc5c(O)c(O)cc(c5C24)C(=O)OC13)c1cc(O)c(O)c(O)c1 (some centres not stated) | > 100 µM | > 100 µM | > 100 µM | > 100 µM | – | > 100 µM | > 100 µM | > 100 µM | > 100 µM | > 100 µM | > 100 µM | – | – | – | – | – | – | –
17 | C=C1CC[C@@H]2[C@](C)(COC(=O)CCC(=O)OC)CCC[C@@]2(C)[C@@H]1CCC1=CC(=O)OC1 | > 100 µM | > 100 µM | > 100 µM | > 100 µM | > 100 µM | > 100 µM | – | > 100 µM | > 100 µM | > 100 µM | > 100 µM | > 100 µM | – | – | – | – | – | –
18 | CS(=O)(=O)CCC1CCC(=O)O1 (configuration not stated) | > 100 µM | > 100 µM | – | > 100 µM | > 100 µM | > 100 µM | > 100 µM | – | > 100 µM | > 100 µM | > 100 µM | > 100 µM | – | – | – | – | – | –
19 | CC(=O)Nc1nc2c(=O)c3ccccc3sc2s1 | > 100 µM | > 100 µM | > 100 µM | > 100 µM | > 100 µM | > 100 µM | > 100 µM | – | > 100 µM | > 100 µM | > 100 µM | > 100 µM | – | – | – | – | – | –
20 | COC(=O)C1=C(OC)C(=P2(c3ccccc3)CC(c3ccccc3)=C2c2ccccc2)C(C(=O)OC)=C1C(=O)OC (configuration not stated) | > 100 µM | > 100 µM | > 100 µM | > 100 µM | > 76 µM | – | > 100 µM | > 100 µM | > 100 µM | – | > 100 µM | > 95.5 µM | – | – | – | – | – | –
